Source: article PMC12648656, “Palladium(II) Complexes with Noncovalent Interactions with DNA: Solution Speciation Controlled by Solvent Identity, pH, and Concentration” (Inorganic Chemistry, 2025)
Values after ≈ are worked out from the molar mass of the structure shown. Read-outs that look alike come from different tables or passages of the source.

Key:
calf thymus-DNA (CT-DNA) [1] = experiment: Viscometry with CT-DNA; format: binding; conditions: compound/DNA ratios 0.0 to 1.0; 5 mM Tris, 100 mM NaCl, pH 7.40, 25.0 °C
Protocol: […] Then, the samples were incubated at 37 °C and with constant shaking at 300 rpm for 10 min and 1 h. After each incubation, the viscosity was measured at a constant temperature of 25.0 ± 0.2 °C in a vibrational viscometer. The relative viscosity was calculated by taking the mean values of three replicate measurements, and the values were represented by plotting the values of relative viscosity of CT-DNA (η/η0)^1/3 against 1/R.

calf thymus-DNA (CT-DNA) [2] = experiment: UV-vis titration with CT-DNA; format: binding; conditions: complex/DNA ratio 0 to 0.79; 5 mM Tris, 50 mM NaCl, pH 7.40, 25 °C
Protocol: To investigate the potential binding ability of the palladium complexes (2) and (3) with DNA, UV–vis titrations (240 to 700 nm) were performed at room temperature. During the titrations, the CT-DNA concentration (5.08 × 10^–5 M) was kept constant, while the concentration of each complex (0 to 2.00 × 10^–5 M) was varied. The changes in the typical absorbance of CT-DNA at 260 nm were monitored after equilibration (10 min) and after 1 h of incubation at 37 °C. […] Control experiments with DMSO were performed, and no changes in the CT-DNA spectrum were observed.

[3] = tested on: Enterococcus faecalis (ATCC 29212); experiment: Antibacterial MIC, broth dilution; format: cell-based
Protocol: (§1) Antibacterial activity was determined for the title compounds in various Gram-negative and Gram-positive bacterial strains, namely Klebsiella pneumoniae, Escherichia coli (ATCC 25922), Staphylococcus aureus (272123), methicillin-resistant Staphylococcus aureus (ATCC 43300), and Enterococcus faecalis (ATCC 29212). The stock solutions of the tested compounds were prepared in DMSO at a 5 mM concentration. […] All stock solutions were diluted in 100 μL of Mueller Hinton Broth, and then two-fold serial dilutions were performed. Then, a 10^–4 dilution of an overnight bacterial culture in 100 μL of medium was added to each well, except for the medium control wells. The highest concentration of the compounds in the tested samples was 100 μM. The plates were incubated at 37 °C for 18 h. After that, the MIC values were determined by visual inspection.

[4] = tested on: Staphylococcus aureus (272123); experiment: Antibacterial MIC, broth dilution; format: cell-based; conditions: 18 h
Protocol: as §1

[5] = tested on: Escherichia coli (ATCC 25922); experiment: Antibacterial MIC, broth dilution; format: cell-based
Protocol: as §1

Klebsiella pneumoniae = experiment: Antibacterial MIC, broth dilution; format: cell-based; conditions: 18 h
Protocol: as §1

[6] = tested on: Colo 205 human colon cancer cell line; experiment: In vitro cytotoxicity, MTT; format: cell-based; conditions: Colo 205, 72 h exposure
Protocol: (§2) Cell culture reagents were obtained from Merck, and plasticware was obtained from Sarstedt. Human colon adenocarcinoma cell line Colo 205 (ATCC CCL-222) and MCF7 (ATCC HTB-22) breast cancer cells were purchased from LGC Promochem. Cancer cells were cultured in RPMI 1640 medium supplemented with 10% heat-inactivated fetal bovine serum, 2 mM L-glutamine, and 1 mM sodium pyruvate and buffered with 100 mM HEPES. The cells were incubated at 37 °C in a 5% CO2, 95% air atmosphere and were detached with Trypsin-Versene (EDTA) solution for 5 min at 37 °C.
(§3) The tested ligands were dissolved in DMSO, and the stock solutions (5 mM) were diluted in complete culture medium. Two-fold serial dilutions of compounds were made in 100 μL of the medium, horizontally. The semiadherent colon adenocarcinoma cells were treated with Trypsin-Versene (EDTA) solution. They were adjusted to a density of 1 × 10^4 cells in 100 μL of RPMI 1640 medium and were added to each well, with the exception of the medium control wells. The final volume of the wells containing compounds and cells was 200 μL. The plates containing the cells were incubated at 37 °C for 72 h; at the end of the incubation period, 20 μL of MTT solution (5 mg/mL) was added to each well. After incubation at 37 °C for 4 h, 100 μL of sodium dodecyl sulfate solution (10% in 0.01 M HCl) was added to each well, and the plates were further incubated at 37 °C overnight. Cell growth was determined by measuring the optical density (OD) at 540 and 630 nm with a Multiskan EX plate reader (Thermo Labsystems).
(§4) Curves for the data obtained on cancer cells were fitted by GraphPad Prism software using the sigmoidal dose–response model (comparing variable and fixed slopes). The IC50 values were always obtained from at least three independent experiments.

pBR322 plasmid DNA = experiment: Agarose gel electrophoresis mobility shift; format: binding; conditions: r i 0.01 to 0.20, 24 h, 37 °C
Protocol: Complexes (2) and (3) were incubated at 37 °C with a concentration of 0.0625 μg/μL pBR322 plasmid DNA at different concentrations expressed as r i = complex:DNA (base pair) ratio. The r i used was from 0.01 to 0.20, in a total volume of 20 μL. After an incubation period of 24 h, the mobility of the complex-treated pBR322 samples was analyzed by gel electrophoresis at 70 V in Tris/acetate/EDTA buffer. A control of pBR322 was also incubated, and a 1 kb ladder aliquot was loaded into lane 1 of the gel. The gel was stained with an ethidium bromide aqueous solution, and DNA bands were visualized with a UV-transilluminator UVITEC Cambridge UVIDOC HD2 instrument. The studies were performed with 3% (v/v) DMSO as the final solution.

[7] = target: T1, hen egg white lysozyme (HEWL) (Gallus gallus, UniProt P00698); experiment: Reaction with lysozyme followed by UV-vis at 280 nm, pseudo-first-order kinetics; format: binding; conditions: metal:protein 3:1, 5 mM Tris/3% DMSO, 37 °C, absorbance at 280 nm
T1 construct: a model protein, namely HEWL (hen egg white lysozyme), was also studied; from tissue; host or cells: hen egg white (from the protein's name)
T1 sequence (P00698 19-147): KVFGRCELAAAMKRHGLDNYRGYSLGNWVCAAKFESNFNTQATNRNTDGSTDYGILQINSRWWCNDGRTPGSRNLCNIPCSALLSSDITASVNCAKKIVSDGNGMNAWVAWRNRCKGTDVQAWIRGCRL
Protocol: The interaction of complexes (2) and (3) with hen egg white lysozyme (HEWL) was investigated using a 10^–5 M solution of the protein. Lysozyme is a widely used model protein for studying the binding of potential metallodrugs. The sample preparation for this assay was carried out using the same protocol of the samples for the DNA interactions studies by UV–vis spectrophotometry. The integrity of the enzyme was checked in each experiment, with a comparison of fresh and incubated samples. UV–vis spectra were recorded before and after incubation with the complex (dissolved in 97% 5 mM Tris/3% DMSO) for 24 h at 37 °C. A metal to protein ratio of 3:1 was used for these studies, a ratio that affords similar results to 10:1 and eases the sample preparation. The experimental time-dependent profiles of the spectra were analyzed as pseudo-first-order reactions by plotting the variation of the absorbance as a function of time.

glutathione (GSH) = experiment: Reaction with glutathione followed by UV-vis; conditions: 30-fold GSH, ~20 μM complex, 60% (v/v) DMSO/phosphate buffer pH 7.4, 25.0 °C
Protocol: Reactions between the title compounds and GSH were also followed by UV–vis spectrophotometry under an inert atmosphere to overcome oxidation of GSH by air oxygen. Samples contained the metal complexes at low concentrations (∼20 μM) and were prepared using 60% (v/v) DMSO/phosphate buffer solution (pH 7.4) to avoid precipitation. The reactants were separated in the pockets of a tandem cuvette, followed by deoxygenation by argon bubbling. The separate solutions were mixed at 1:30 metal complex:GSH molar ratios, and UV–vis spectra were recorded. Argon was continuously passed over the sample during the whole measurement.

[8] = tested on: methicillin-resistant Staphylococcus aureus (ATCC 43300); experiment: microbe, parasite or virus in culture; format: cell-based; conditions: 18 h
Protocol: as §1

Solubility observations = format: physicochemical; conditions: as observed; aqueous solution for HL
[9] = Spectrophotometric (UV-vis) pH titrations for proton dissociation constants; format: physicochemical; conditions: I = 0.10 M (KCl), 25.0 °C
Protocol: Spectrophotometric titrations were applied to study the equilibrium processes (proton dissociation and complex dissociation/formation) in DMSO/H2O mixtures due to the limited aqueous solubility of the compounds. The calibration of the electrode system was performed by strong acid–strong base pH-potentiometric titrations in 30% (v/v) and 60% (v/v) DMSO/H2O solvent mixtures at 25.0 ± 0.1 °C as described in our previous works. , KCl (0.1 M) was the supporting electrolyte to maintain constant ionic strength, which refers to the chloride ion concentration in blood plasma. […] The initial sample volume was 5 mL. Spectrophotometric titrations were performed in the pH range 1.8–12.5 for 30% (v/v) DMSO/H2O medium and 1.8–14.0 for 60% (v/v) DMSO/H2O medium. Prior to the titrations, purified argon was passed through the samples for approximately 10 min to remove CO2 traces, and argon was also passed over the samples during these measurements. The proton dissociation constants were calculated by using the computer program PSEQUAD.

[10] = tested on: MCF7 human breast cancer cell line; experiment: In vitro cytotoxicity, MTT; format: cell-based; conditions: Homo sapiens; MCF7, 72 h exposure
Protocol: as §2, §3, §4

[11] = n-Octanol/water and n-octanol/Tris buffer shake-flask partitioning; format: physicochemical
Protocol: The distribution coefficient values (D 7.4) of the compounds were determined by the traditional shake-flask method in n-octanol/buffered aqueous solution at pH 7.40 for 5 mM Tris HCl with 0.1 M KCl and at pH 7.4 at 25.0 ± 0.2 °C. The ligand and complexes were dissolved in n-octanol (presaturated by the aqueous buffer) because of the very low aqueous solubility. The aqueous buffer solution and n-octanol ratio was 1:1 due to the expected high lipophilicity of the compounds. First, samples were mixed with vertical rotation (∼20 rpm) for 3 h, and then the two phases were separated by centrifugation at 3000 rpm (∼1000g) for 3 min. After separation, UV–vis spectra of the compounds were recorded in both phases. Spectra of the n-octanol phases were compared to those of the original n-octanol stock solutions.
The distribution coefficient values were also determined using unbuffered water and octanol (also presaturated) with a ratio of 1:1.

[12] = Enterococcus faecalis, ATCC29212, 18 h
[13] = Escherichia coli, ATCC25922, 18 h
[14] = Staphylococcus aureus, ATCC 43300 / MRSA

Q: Which “effect on relative viscosity of CT-DNA” value (calf thymus-DNA (CT-DNA) [1]) does the source give for `CC[n+]1c(-c2ccccc2)c2cc(N)ccc2c2ccc(N)cc21` [ethidium bromide] here?
A: increases the dynamic viscosity

Q: What does the source list for “Chlorido(dimethyl sulfoxide)(1H-imidazole-4-carboxaldehyde-4N-p-chlorophenylthiosemicarbazonato)palladium(II) [(3)]”?
A: change of CT-DNA absorption at 260 nm (calf thymus-DNA (CT-DNA) [2]): absorption values of DNA–complex samples increase; MIC ([3]; E. faecalis, 18 h, 37 °C): > 100 µM; MIC ([4]; S. aureus, 37 °C): > 100 µM; MIC ([5]; E. coli, 18 h, 37 °C): > 100 µM; MIC (Klebsiella pneumoniae; K. pneumoniae, 37 °C): > 100 µM; IC50 [6]: 16200 ± 1180 nM; effect on electrophoretic mobility of supercoiled pBR322 (pure form) (pBR322 plasmid DNA): small unwinding; observed rate constant k obs [7]: (8.75 ± 0.09) × 10^–5 s^–1; time to equilibrium of the reaction with GSH (glutathione (GSH)): ≤ 30 min; MIC ([8]; S. aureus (MRSA), 37 °C): > 100 µM

Q: With `S=C(N/N=C/c1c[nH]cn1)Nc1ccc(Cl)cc1` [HL, 1H-Imidazole-4-carboxaldehyde(4N-p-chlorophenyl)thiosemicarbazone] as the compound, how does the solubility (Solubility observations) read?
A: poor solubility

Q: What about the pKa ([9]; 30% (v/v) DMSO/H2O solvent mixture, 30% (v/v) DMSO/H2O, read-out: pKa1) of the same compound?
A: 4.38 ± 0.03

Q: What about the pKa ([9]; 30% (v/v) DMSO/H2O solvent mixture, 30% (v/v) DMSO/H2O, read-out: pKa2) of the same compound?
A: 10.96 ± 0.04

Q: And the pKa ([9]; 60% (v/v) DMSO/H2O solvent mixture, 60% (v/v) DMSO/H2O, read-out: pKa1)?
A: 3.81 ± 0.02

Q: What about the pKa ([9]; 60% (v/v) DMSO/H2O solvent mixture, 60% (v/v) DMSO/H2O, read-out: pKa2) of the same compound?
A: 11.12 ± 0.01

Q: And the pKa ([9]; pure water (0% DMSO), predicted value, 0% DMSO (pure water), predicted value, read-out: pKa1)?
A: 4.58

Q: What about the pKa ([9]; pure water (0% DMSO), predicted value, 0% DMSO (pure water), predicted value, read-out: pKa2) of the same compound?
A: 10.9

Q: What about the MIC [3, 12] of the same compound?
A: 100 µM (≈ 28 µg/mL)

Q: What about the MIC ([4]; Staphylococcus aureus) of the same compound?
A: 100 µM (≈ 28 µg/mL)

Q: What about the MIC [5, 13] of the same compound?
A: 25 µM (≈ 6.99 µg/mL)

Q: What about the MIC (Klebsiella pneumoniae; Klebsiella pneumoniae) of the same compound?
A: > 100 µM

Q: And the IC50 [10]?
A: 2970 ± 320 nM

Q: What about the IC50 ([6]; Homo sapiens) of the same compound?
A: 19100 ± 600 nM

Q: What about the MIC [8, 14] of the same compound?
A: 50 µM (≈ 14 µg/mL)

Q: And the logD ([11]; n-octanol/Tris HCl buffer, pH 7.4, n-octanol/5 mM Tris HCl with 0.1 M KCl, pH 7.40, 25.0 °C, read-out: log D o/t)?
A: 1.58

Q: And the logD ([11]; n-octanol/pure (unbuffered) water, 1:1, read-out: log D o/w)?
A: 0.9

Q: With `CNC(C)C1CCC(N)C(OC2C(N)CC(N)C(OC3OCC(C)(O)C(NC)C3O)C2O)O1` (stereo not drawn) [gentamicin, reference compound] as the compound, how does the MIC [3, 12] read?
A: 10.5 µM (≈ 5 µg/mL)

Q: And the MIC ([4]; Staphylococcus aureus)?
A: 10.5 µM (≈ 5 µg/mL)

Q: And the MIC [5, 13]?
A: 5.24 µM (≈ 2.5 µg/mL)

Q: What about the MIC (Klebsiella pneumoniae; Klebsiella pneumoniae) of the same compound?
A: 2.62 µM (≈ 1.25 µg/mL)

Q: And the MIC [8, 14]?
A: > 10.5 µM

Q: What does the source list for `COc1cccc2c1C(=O)c1c(O)c3c(c(O)c1C2=O)C[C@@](O)(C(=O)CO)C[C@@H]3O[C@H]1C[C@H](N)[C@H](O)[C@H](C)O1` [Doxorubicin, reference compound]?
A: IC50 [10]: 128 ± 0.9 nM; IC50 ([6]; Homo sapiens): 158 ± 4 nM

Q: With `O=C(O)c1cn(C2CC2)c2cc(N3CCNCC3)c(F)cc2c1=O` [ciprofloxacin, reference compound] as the compound, how does the MIC [3, 12] read?
A: 1.89 µM (≈ 0.625 µg/mL)

Q: And the MIC ([4]; Staphylococcus aureus)?
A: 1.89 µM (≈ 0.625 µg/mL)

Q: What about the MIC [5, 13] of the same compound?
A: 0.235 µM (≈ 0.078 µg/mL)

Q: What about the MIC (Klebsiella pneumoniae; Klebsiella pneumoniae) of the same compound?
A: 0.235 µM (≈ 0.078 µg/mL)

Q: And the MIC [8, 14]?
A: > 15.1 µM
